Measured values published in patent publication US4534980A, “Antiinflammatory and antipyretic cream” (Hokuriku Pharmaceutical Co., Ltd., priority 1984, dated 1985).

Tests used:
[1] = test system: carrageenin induced paw edema; assay: Antiinflammatory effect on carrageenin induced paw edema (Experiments 3, 8); assay type: in vivo, Wistar male rats; details: inhibition rate in oral administration = 1.00
Protocol: The antiinflammatory effect of the test compositions in Experiment 1 was determined by an effect on carrageenin induced paw edema. The experiment was performed using 8 Wistar male rats weighing approximately 170 g per one group. After previously measuring the volume of left hind paw, 50 mg each of the test compositions (stored at room temperature for one month after the preparation) was applied twice, left hind paw of the rat, 2 hours and 1 hour before injection of an inflammatory agent. As the inflammatory agent, 0.1 ml of a 1% carrageenin solution was subcutaneously injected at the left hind paw. The volume of the left hind paw was measured 3 hours after and a swelling was determined based on the volume before injecting the inflammatory agent. A group in which no test composition was applied was made a control group and the inhibition rate was calculated based thereon as follows. [formula]
The antiinfammatory effect was examined with the test compositions of Experiment 7, in a manner similar to Experiment 3.

[2] = test system: carrageenin induced paw edema; details: 5 mg/kg, Folia Pharmacologica Japonica vol. 70, page 543 (1974); cited from earlier work

CC(C(=O)O)c1cccc(C(=O)c2ccccc2)c1 (centres unmarked) [Ketoprofen]
Potency Ratio (Table 3) [1]: 1.00
Inhibition Rate, Oral Administration (Table 3) [2]: 45.9%
